Legend:
[1] = tested on: STAT1/3 through TYK2/JAK1; experiment: IFNa induced STAT phosphorylation in HEK293 cells (SIE-bla reporter gene); assay type: cell-based; details: Homo sapiens, HEK293; HEK293T-sie-bla cells, IFNa at EC80, 4 hours; read-out: Inhibition of IFNa induced STAT phosphorylation HEK293 cells IC50
Procedure: Stimulation of HEK293T-sie-bla cells with interferon alpha (INFa) activates the signaling pathway of STAT1/3 through TYK2/JAK1. In this assay, measurement of the activity of the reporter gene […]-lactamase expression was used as the readout.
CellSensorTM SIE-bla HEK293T cell line were purchased from Thermo Fisher Scientific (ref. #K1649B) and cultured as specified by the provider. A number of 30.000 cells per well (40 µl) were plated in a 384-well plate (Corning ref.# 3712) and cultured overnight at 37°C with 5% CO2 in a complete Optimem media (ThermoFisher ref. #11058-021) containing 0.5% (v/v) heat inactivated dialyzed FBS (Life Technologies ref. #26400044), 10 µM non-essential aminoacids NEAA (Sigma ref. #M7145), 100 µM Sodium Pyruvate (Gibco ref. #11360-039) and 100 U/mL Penicillin (Sigma ref. #P0781). Compounds were initially dissolved in 100% DMSO. Compound curves were then prepared using a 1/5 serial dilution (10 dilutions). The dilutions were directly diluted in complete Optimem media at 40-fold their final concentration in 20% DMSO. IFNa initial solution (R&D systems ref. #11100-1) was prepared at 10-fold its EC80 in complete Optimem media. Compounds and IFNa were added simultaneously to the wells with cells and incubated during 4 hours at 37°C (the final DMSO was 0.1%). The […]-lactamase substrate (LifeTechnologies ref.#K1138) was prepared at 6-fold its final concentration as specified by the provider. Then 10 µL of the mixture was added to the wells to stop the stimulation. Plate was left in the dark over-night. Then a FRET reading was performed on an appropriate plate reader.
All experiments were analysed using an ExcelFit template and the four-parameter log equation. […] TABLE 2: IC50 Inhibitions of IFNa induced STAT phosphorylation in HEK293 cells

[2] = biological target: T1, TYK2 (JH2domain-pseudokinase) (Homo sapiens, UniProt P29597); experiment: TYK2 JH2 domain binding assay (KINOMEscan)
T1 construct: TYK2 (JH2domain-pseudokinase)-tagged T7 phage strains were prepared in an E. coli host derived from the BL21 strain; made in house; host or cells: E. coli BL21-derived host (T7 phage) or HEK-293 cells
T1 sequence (P29597 589-875 limits assumed): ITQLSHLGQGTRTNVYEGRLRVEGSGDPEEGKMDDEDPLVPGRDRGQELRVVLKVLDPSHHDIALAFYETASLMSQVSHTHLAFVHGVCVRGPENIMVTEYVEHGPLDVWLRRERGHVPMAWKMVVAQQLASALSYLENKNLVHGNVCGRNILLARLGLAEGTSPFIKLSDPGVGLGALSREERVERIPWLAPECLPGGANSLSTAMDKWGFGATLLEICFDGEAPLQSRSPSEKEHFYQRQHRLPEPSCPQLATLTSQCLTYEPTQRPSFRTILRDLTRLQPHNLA
Procedure: TYK2 (JH2domain-pseudokinase) KINOMEscan assay. For the assay, TYK2 (JH2domain-pseudokinase)-tagged T7 phage strains were prepared in an E. coli host derived from the BL21 strain.E. coli were grown to log-phase and infected with T7 phage and incubated with shaking at 32°C until lysis. The lysates were centrifuged and filtered to remove cell debris. The remaining TYK2 (JH2domain-pseudokinase) were produced in HEK-293 cells and subsequently tagged with DNA for qPCR detection. Streptavidin-coated magnetic beads were treated with biotinylated small molecule ligands for 30 minutes at room temperature to generate affinity resins for kinase assays. The liganded beads were blocked with excess biotin and washed with blocking buffer (SeaBlock (Pierce), 1% BSA, 0.05% Tween 20, 1 mM DTT) to remove unbound ligand and to reduce non-specific binding. Binding reactions were assembled by combining TYK2 (JH2domain-pseudokinase), liganded affinity beads, and test compounds in 1x binding buffer (20% SeaBlock, 0.17x PBS, 0.05% Tween 20, 6 mM DTT). Test compounds were prepared as 111X stocks in 100% DMSO. Kds were determined using an 11-point 3-fold compound dilution series with three DMSO control points. All compounds for Kd measurements are distributed by acoustic transfer (non-contact dispensing) in 100% DMSO. The compounds were then diluted directly into the assays such that the final concentration of DMSO was 0.9%. All reactions performed in polypropylene 384-well plate. Each was a final volume of 0.02 ml. The assay plates were incubated at room temperature with shaking for 1 hour and the affinity beads were washed with wash buffer (1x PBS, 0.05% Tween 20). The beads were then re-suspended in elution buffer (1x PBS, 0.05% Tween 20, 0.5 µM non-biotinylated affinity ligand) and incubated at room temperature with shaking for 30 minutes. The kinase concentration in the eluates was measured by qPCR. […]
An 11-point 3-fold serial dilution of each test compound was prepared in 100% DMSO at 100x final test concentration and subsequently diluted to 1x in the assay (final DMSO concentration = 1%). Most Kds were determined using a compound top concentration = 30,000 nM. If the initial Kd determined was < 0.5 nM (the lowest concentration tested), the measurement was repeated with a serial dilution starting at a lower top concentration.
Curves were fitted using a non-linear least square fit with the Levenberg-Marquardt algorithm. […] TABLE 1: Kd Affinities for Tyk2 JH2 Domain Binding Assay.

Work on COc1ccccc1Nc1cc(NC(=O)C2CC2)ncn1 [Example 2, N-[6-(2-methoxyanilino)pyrimidin-4-yl]cyclopropanecarboxamide] yielded an IC50 [1] of over 1000 nM and a Kd [2] of over 10 nM.
Molecule COc1c(C)cccc1Nc1cc(NC(=O)C2CC2)ncn1 [Example 3, N-[6-(2-methoxy-3-methyl-anilino)pyrimidin-4-yl]cyclopropanecarboxamide] has an IC50 [1] of over 1000 nM and a Kd [2] of 1 to 10 nM.
In the case of COc1cccc(Nc2cc(Nc3cc(C)nc(C)n3)ncn2)c1 [Example 5, N6-(2,6-dimethylpyrimidin-4-yl)-N4-(3-methoxyphenyl)pyrimidine-4,6-diamine], the IC50 [1] is reported as over 1000 nM and the Kd [2] is reported as 1 to 10 nM.
COc1c(F)cccc1Nc1cc(Nc2cc(C)nc(C)n2)ncn1 [Example 7, N6-(2,6-dimethylpyrimidin-4-yl)-N4-(3-fluoro-2-methoxy-phenyl) pyrimidine-4,6-diamine] showed an IC50 [1] of over 1000 nM and a Kd [2] of over 10 nM.
COc1ccc(C)nc1Nc1cc(Nc2cc(C)nc(C)n2)ncn1 [Example 8, N4-(2,6-dimethylpyrimidin-4-yl)-N6-(3-methoxy-6-methyl-2-pyridyl)pyrimidine-4,6-diamine] was tested, and the IC50 [1] was over 1000 nM and the Kd [2] was over 10 nM.
In the case of COc1c(C)cccc1Nc1cc(Nc2cnn(C3CCOCC3)c2)ncn1 [Example 9, N4-(2-methoxy-3-methyl-phenyl)-N6-(1-tetrahydropyran-4-ylpyrazol-4-yl)pyrimidine-4,6-diamine], the IC50 [1] is reported as over 1000 nM and the Kd [2] is reported as over 10 nM.
For Cc1cc(Nc2cc(Nc3ccccc3OC(F)(F)F)ncn2)nc(C)n1 [Example 10, N6-(2,6-dimethylpyrimidin-4-yl)-N4-[2-(trifluoromethoxy)phenyl] pyrimidine-4,6-diamine], the IC50 [1] was over 1000 nM and the Kd [2] was over 10 nM.
Molecule Cc1cc(Nc2cc(Nc3ccccc3S(C)(=O)=O)ncn2)nc(C)n1 [Example 11, N6-(2,6-dimethylpyrimidin-4-yl)-N4-(2-methylsulfonylphenyl)pyrimidine-4,6-diamine] has an IC50 [1] of 10 to 100 nM and a Kd [2] of 0.2 to 1 nM.
Molecule CN(c1ccccc1Nc1cc(Nc2ncn(C)n2)ncn1)S(C)(=O)=O [Example 13, N-methyl-N-[2-[[6-[(1-methyl-1,2,4-triazol-3-yl)amino]pyrimidin-4-yl]amino]phenyl]methanesulfonamide] has an IC50 [1] of over 1000 nM and a Kd [2] of over 10 nM.
For CN(c1ccccc1Nc1cc(NC(=O)C2CC2)ncn1)S(C)(=O)=O [Example 14, N-[6-[2-[methyl(methylsulfonyl)amino]anilino]pyrimidin-4-yl]cyclopropanecarboxamide], the IC50 [1] was 100 to 1000 nM and the Kd [2] was 0.2 to 1 nM.
Work on COc1ccc(Nc2cc(Nc3cc(C)nc(C)n3)ncn2)c(OC)c1 [Example 17, N4-(2,4-dimethoxyphenyl)-N6-(2,6-dimethylpyrimidin-4-yl)pyrimidine-4,6-diamine] yielded an IC50 [1] of over 1000 nM.
Molecule Cc1cc(Nc2cc(Nc3cnccc3N(C)S(C)(=O)=O)ncn2)nc(C)n1 [Example 35, N-[3-[[6-[(2,6-dimethylpyrimidin-4-yl)amino]pyrimidin-4-yl]amino]pyridin-4-yl]-N-methylmethanesulfonamide] has a Kd [2] of over 10 nM.
COc1c(Nc2cc(Nc3cc(C)nc(C)n3)ncn2)cccc1-c1ncn(C(F)F)n1 [Example 54, N4-[3-[1-(difluoromethyl)-1,2,4-triazol-3-yl]-2-methoxy-phenyl]-N6-(2,6-dimethylpyrimidin-4-yl)pyrimidine-4,6-diamine] showed an IC50 [1] of 100 to 1000 nM.
In the case of COc1c(Nc2cc(Nc3cc(C)nc(C)n3)ncn2)cccc1C1CCCCO1 (centres unmarked) [Example 56, N6-(2,6-dimethylpyrimidin-4-yl)-N4-(2-methoxy-3-tetrahydropyran-2-yl-phenyl)pyrimidine-4,6-diamine], the IC50 [1] is reported as over 1000 nM.
COc1c(Nc2cc(Nc3cc(C)nc(C)n3)ncn2)cccc1-c1ncn(CC2CCCOC2)n1 (centres unmarked) [Example 57, N4-(2,6-dimethylpyrimidin-4-yl)-N6-[2-methoxy-3-[1-(tetrahydropyran-3-ylmethyl)-1,2,4-triazol-3-yl]phenyl]pyrimidine-4,6-diamine] gave an IC50 [1] of 10 to 100 nM.
Work on COc1c(Nc2cc(Nc3cc(C)nc(C)n3)ncn2)cccc1-c1ncn(C2CC(O)C2)n1 (centres unmarked) [Example 58, 3-[3-[3-[[6-[(2,6-dimethylpyrimidin-4-yl)amino]pyrimidin-4-yl]amino]-2-methoxy-phenyl]-1,2,4-triazol-1-yl]cyclobutanol] yielded an IC50 [1] of 100 to 1000 nM.
For COc1c(Nc2cc(Nc3cc(C)nc(C)n3)ncn2)cccc1-c1ncn(CC2CCCO2)n1 (centres unmarked) [Example 59, N4-(2,6-dimethylpyrimidin-4-yl)-N6-[2-methoxy-3-[1-(tetrahydrofuran-2-ylmethyl)-1,2,4-triazol-3-yl]phenyl]pyrimidine-4,6-diamine], the IC50 [1] was 10 to 100 nM.
Work on COc1c(Nc2cc(Nc3cc(C)nc(C)n3)ncn2)cccc1-c1ncn(CC2CCOC2)n1 (centres unmarked) [Example 60, N6-(2,6-dimethylpyrimidin-4-yl)-N4-[2-methoxy-3-[1-(tetrahydrofuran-3-ylmethyl)-1,2,4-triazol-3-yl]phenyl]pyrimidine-4,6-diamine] yielded an IC50 [1] of 10 to 100 nM.
Work on Cc1cc(Nc2cc(Nc3ccccc3-c3ncn(C)n3)ncn2)nc(C)n1 [Example 79, N6-(2,6-dimethylpyrimidin-4-yl)-N4-[2-(1-methyl-1,2,4-triazol-3-yl)phenyl]pyrimidine-4,6-diamine] yielded an IC50 [1] of over 1000 nM.
Work on COc1cc(-c2nc(C(F)(F)F)n(C)n2)ccc1Nc1cc(Nc2cc(C)nc(C)n2)ncn1 [Example 82, N6-(2,6-dimethylpyrimidin-4-yl)-N4-[2-methoxy-4-[1-methyl-5-(trifluoromethyl)-1,2,4-triazol-3-yl]phenyl]pyrimidine-4,6-diamine] yielded a Kd [2] of 1 to 10 nM.
With [2H]C([2H])([2H])N(c1cc(-c2cnn(C)c2C)ccc1Nc1cc(Nc2cc(C)nc(C)n2)ncn1)S(C)(=O)=O [Example 98, N-[5-(1,5-dimethylpyrazol-4-yl)-2-[[6-[(2,6-dimethylpyrimidin-4-yl)amino]pyrimidin-4-yl]amino]phenyl]-N-(trideuteriomethyl)methanesulfonamide] the IC50 [1] was over 1000 nM.
Molecule CN=S(C)(=O)c1cc(C2CC2)ccc1Nc1cc(Nc2cc(C)nc(C)n2)ncn1 (centres unmarked) [Example 118, N4-[4-cyclopropyl-2-(N,S-dimethylsulfonimidoyl)phenyl]-N6-(2,6-dimethylpyrimidin-4-yl)pyrimidine-4,6-diamine] has an IC50 [1] of under 10 nM.
Molecule Cc1cc(Nc2cc(Nc3ncc(-c4cnn(C)c4C)cc3[S+](C)[O-])ncn2)nc(C)n1 (centres unmarked) [Example 173, N4-[5-(1,5-dimethylpyrazol-4-yl)-3-methylsulfinyl-2-pyridyl]-N6-(2,6-dimethylpyrimidin-4-yl)pyrimidine-4,6-diamine] has an IC50 [1] of under 10 nM.
For COc1c(-c2ncn(C)n2)ccnc1Nc1cc(Nc2ccc(F)c(C)n2)ncn1 [Example 174, N4-(5-fluoro-6-methyl-2-pyridyl)-N6-[3-methoxy-4-(1-methyl-1,2,4-triazol-3-yl)-2-pyridyl]pyrimidine-4,6-diamine], the IC50 [1] was 10 to 100 nM.
For Cc1cc(Nc2cc(Nc3ncc(C4CCCCO4)cc3S(C)(=O)=O)ncn2)nc(C)n1 (centres unmarked) [Example 175, 6-N-(2,6-dimethylpyrimidin-4-yl)-4-N-[3-methylsulfonyl-5-(oxan-2-yl)pyridin-2-yl]pyrimidine-4,6-diamine], the IC50 [1] was under 10 nM.

— patent EP4206196A1, “PYRIMIDINE SUBSTITUTED DERIVATIVES AS TYK2 INHIBITORS” (Almirall S.A., priority 2021, dated 2023)
